According to publication PMC3115942 (PLoS ONE, 2011):

Columns and labels:
[1] = test system: GLI1 mRNA in PANC-1 cells; experiment: Real time PCR of GLI1 mRNA in PANC-1; format: cell-based, human; conditions: 5 µM, 48 hrs
Procedure: (§1) Cells were lysed for RNA extraction after 48 or 72 hours of treatment. Total RNA from cultured cells or tumor tissue was isolated using the GeneElute miniprep kit (Sigma-Aldritch) following the manufacturer^'s instructions. cDNA was synthesized from the isolated mRNA using the Retroscript kit (Ambion), and real-time PCR was carried out using the SYBR Green PCR master mix (Stratagene) according to the manufacturer^'s instructions with an Mx3000P cycler (Stratagene). The relative concentrations of cDNA present in each sample were calculated by the MxPro software (Stratagene), normalized for GAPDH (mRNA from cells) or GUS (mRNA from tumors). For real time PCR primer sequences see Table 6. For the tumor tissue real time PCR, previously described human and mouse specific primers against GUSB, PTCH1 and GLI1were used.

PANC-1 cells = experiment: In vitro antiproliferative assay (MTS), PANC-1; format: cell-based, human; conditions: 5 µM, 4 day
Procedure: (§2) Cells were plated at a density of 3000 (THLE-2 and PC-3) and 1000 (PANC-1, SUIT-2 and FEMX) cells per well (on the basis of their growth rate) in 200 µl of medium in a 96-well plate. Medium was changed daily, and after four days, the assay was read using a MTS kit (Promega) according to the instructions of the manufacturer. Graphs display average of percent growth with standard deviation (n = 8).

[2] = test system: Hh pathway in Shh-L2 cells; experiment: Hh reporter assay in Shh-L2 cells; format: cell-based, mouse; conditions: Mus musculus; pathway inhibition in Shh induced Shh-L2 cells, 48 hours treatment
Procedure: Shh-L2 cells were used as a Hh reporter cell line as described previously. Hh signaling was induced by Shh conditioned medium, 200 nM SAG (AH-Diagnostics) and ActOXS (a combination of 5 µM Hydroxycholesterol 20-alfa and 5 µM Hydroxycholesterol 22S (Sigma-Aldrich)). For Shh conditioned medium, Shh-PANC-1 cells were grown to confluence and switched to fresh medium. Shh conditioned medium was harvested after 48 hours, and was diluted to 50% in fresh DMEM before use. The clonal Shh-PANC-1 cell line was generated by stably transducing PANC-1 cells with virus containing medium from HEK293T cells that were transfected using a Virapower Lentiviral expression kit (Invitrogen). The vector was produced by removing GFP from a pLenti 6.2-vector, and inserting the mouse Shh cDNA sequence.
The calculations were performed with an online calculator using the formula: a exp (−bx) + c at the website; http://www.changbioscience.com/stat/ec50.html

[3] = test system: Gli1 protein in Sufu−/− MEF; experiment: Gli1 immunostaining of Sufu−/− MEF; format: cell-based, mouse; conditions: 20 µM, 48 hours
GLI1 mRNA in PC-3 cells = experiment: Real time PCR of GLI1 mRNA in PC-3; format: cell-based, human; conditions: 48 hrs
Procedure: as §1

[4] = test system: GLI1 mRNA in SUIT-2 cells; experiment: Real time PCR of GLI1 mRNA in SUIT-2; format: cell-based, human; conditions: 48 hrs
Procedure: as §1

[5] = test system: PANC-1, SUIT-2, PC-3 and FEMX cells; experiment: In vitro antiproliferative assay (MTS), tumor cell lines; format: cell-based, human; conditions: 10 µM, 4 day exposure; across PANC-1, SUIT-2, PC-3 and FEMX
Procedure: as §2

[6] = test system: Gli1 mRNA expression in Sufu−/− MEF; experiment: Real time PCR of Gli1 mRNA in Sufu−/− MEF; format: cell-based, mouse; conditions: 72 hours
Procedure: as §1

SMILES	GLI1 mRNA levels, PANC-1 [1]	growth (MTS), PANC-1 (PANC-1 cells)	IC50 [2]	total level of Gli1 in the cells [3]	GLI1 mRNA levels, PC-3 (GLI1 mRNA in PC-3 cells)	GLI1 mRNA levels, SUIT-2 [4]	growth reduction (MTS) [5]	inhibitory effect on Hh signaling downstream of Smo in Sufu−/− MEFs [6]
CS(=O)(=O)c1ccc(C(=O)Nc2ccc(Cl)c(-c3ccccn3)c2)c(Cl)c1 [GDC-0449, reference compound]	without reducing GLI1 mRNA levels	reduced growth	30 nM	reduced Gli1 levels in the cells, but to a lesser extent than MS-0022	reduced GLI1 mRNA levels	reduced GLI1 mRNA levels	≤ 30%	little inhibitory effect
CC1=C2C[C@H]3[C@@H](CC=C4C[C@@H](O)CC[C@@]43C)[C@@H]2CC[C@]12O[C@@H]1C[C@H](C)CN[C@H]1[C@H]2C [cyclopamine, reference compound]			210 nM	no significant effect		reduced GLI1 mRNA levels		little inhibitory effect
